The numbers were not newly measured in article PMC8348686, “The Pharmacological Profile of Second Generation Pyrovalerone Cathinones and Related Cathinone Derivative” (International Journal of Molecular Sciences, 2021), which cites them from elsewhere.

One series addresses T1, adrenergic α1A receptor (Homo sapiens, UniProt P35348).
T1 sequence (P35348 1-466): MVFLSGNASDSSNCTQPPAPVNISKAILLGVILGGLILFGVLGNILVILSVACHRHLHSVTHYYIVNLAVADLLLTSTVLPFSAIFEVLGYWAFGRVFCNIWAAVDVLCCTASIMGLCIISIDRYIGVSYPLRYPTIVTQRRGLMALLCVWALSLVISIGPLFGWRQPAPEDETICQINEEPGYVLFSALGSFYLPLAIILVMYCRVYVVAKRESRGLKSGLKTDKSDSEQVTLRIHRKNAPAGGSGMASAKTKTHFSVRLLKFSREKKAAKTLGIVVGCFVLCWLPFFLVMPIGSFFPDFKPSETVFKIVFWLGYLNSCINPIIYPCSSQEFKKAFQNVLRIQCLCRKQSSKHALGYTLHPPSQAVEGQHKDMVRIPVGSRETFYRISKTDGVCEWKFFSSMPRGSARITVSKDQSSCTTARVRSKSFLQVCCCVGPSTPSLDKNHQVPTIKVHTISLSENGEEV
As to conditions: read-out: α1A Receptor Binding Ki ± SD; [3H]-Prazosin; ref Simmler et al. (2013); cited from earlier work.

A further series deals with h5-HT2A receptor (Homo sapiens, UniProt P28223). Also noted: expressed in transfected cells; host or cells: HEK293 cell preparations. As to conditions: read-out: h5-HT2A Receptor Binding Ki ± SD; [3H]-Ketanserin; ref Simmler et al. (2013); cited from earlier work.
Chain of h5-HT2A receptor (P28223 whole entry): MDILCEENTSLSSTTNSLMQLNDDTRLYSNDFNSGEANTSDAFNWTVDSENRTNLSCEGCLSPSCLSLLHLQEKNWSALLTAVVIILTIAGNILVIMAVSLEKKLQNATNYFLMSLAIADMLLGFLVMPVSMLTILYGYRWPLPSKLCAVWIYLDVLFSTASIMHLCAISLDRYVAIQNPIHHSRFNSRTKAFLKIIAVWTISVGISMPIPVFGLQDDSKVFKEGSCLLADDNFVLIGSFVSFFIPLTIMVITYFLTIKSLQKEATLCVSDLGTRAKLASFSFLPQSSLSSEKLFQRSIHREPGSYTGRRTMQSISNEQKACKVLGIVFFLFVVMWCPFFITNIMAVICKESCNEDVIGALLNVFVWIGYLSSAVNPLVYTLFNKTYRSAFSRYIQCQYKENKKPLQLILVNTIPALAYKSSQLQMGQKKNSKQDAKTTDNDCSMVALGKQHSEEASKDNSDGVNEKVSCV
Another series concerns the target Mouse TAAR1. As to conditions: [3H]-RO5166017; ref Simmler et al. (2013); read-out: Mouse TAAR1 Receptor Binding Ki ± SD; cited from earlier work.
The next series deals with T2, h5-HT2B receptor (Homo sapiens, UniProt P41595).
T2 construct: expressed in transfected cells; host or cells: HEK293
T2 sequence (P41595 whole entry): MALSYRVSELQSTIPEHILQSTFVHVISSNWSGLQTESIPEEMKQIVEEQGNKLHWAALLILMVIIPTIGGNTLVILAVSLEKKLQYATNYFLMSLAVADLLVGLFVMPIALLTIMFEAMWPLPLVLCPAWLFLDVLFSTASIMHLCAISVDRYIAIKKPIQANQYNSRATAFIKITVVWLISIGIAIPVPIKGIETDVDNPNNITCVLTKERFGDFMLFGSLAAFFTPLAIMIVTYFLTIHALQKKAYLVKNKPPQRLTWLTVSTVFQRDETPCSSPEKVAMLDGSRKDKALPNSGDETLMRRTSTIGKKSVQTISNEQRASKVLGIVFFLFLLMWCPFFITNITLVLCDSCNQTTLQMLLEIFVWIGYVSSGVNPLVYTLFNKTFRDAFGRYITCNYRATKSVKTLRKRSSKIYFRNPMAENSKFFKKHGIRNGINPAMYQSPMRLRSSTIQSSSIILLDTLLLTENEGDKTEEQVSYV
The arrangement: method as in Rickli et al. (2015). Conditions: read-out: h5-HT2B Activation Potency EC50 ± SD; ref Rickli et al. (2015); cited from earlier work.

A further series concerns the target T3, adrenergic α2A receptor (Homo sapiens, UniProt P08913).
T3 sequence (P08913 1-465): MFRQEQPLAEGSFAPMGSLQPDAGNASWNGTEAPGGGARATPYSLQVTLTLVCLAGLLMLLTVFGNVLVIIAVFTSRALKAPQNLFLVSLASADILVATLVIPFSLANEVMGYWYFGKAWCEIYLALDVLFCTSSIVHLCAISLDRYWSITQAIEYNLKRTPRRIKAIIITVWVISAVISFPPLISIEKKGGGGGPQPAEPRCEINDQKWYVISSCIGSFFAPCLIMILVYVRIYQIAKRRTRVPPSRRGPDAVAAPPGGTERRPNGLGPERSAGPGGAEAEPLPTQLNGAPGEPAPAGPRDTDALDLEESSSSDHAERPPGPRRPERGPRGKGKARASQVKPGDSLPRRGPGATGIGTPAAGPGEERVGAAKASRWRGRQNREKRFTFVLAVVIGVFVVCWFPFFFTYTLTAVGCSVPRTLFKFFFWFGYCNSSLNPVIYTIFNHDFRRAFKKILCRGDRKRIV
As to conditions: read-out: α2A Receptor Binding Ki ± SD; [3H]-Rauwolscine; ref Simmler et al. (2013); cited from earlier work.

The subject of another series is Human TAAR1. Also noted: method as in Simmler et al. (2016). As to conditions: ref Simmler et al. (2016); read-out: Human TAAR1 Activation Potency EC50 ± SD; cited from earlier work.
The next series concerns the target Rat TAAR1. As to conditions: [3H]-RO5166017; ref Simmler et al. (2013); read-out: Rat TAAR1 Receptor Binding Ki ± SD; cited from earlier work.
In a further series the target is dopaminergic D2 receptor (Homo sapiens, UniProt P14416). Conditions: read-out: D2 Receptor Binding Ki ± SD; [3H]-Spiperone; ref Simmler et al. (2013); cited from earlier work.
Chain of dopaminergic D2 receptor (P14416 whole entry): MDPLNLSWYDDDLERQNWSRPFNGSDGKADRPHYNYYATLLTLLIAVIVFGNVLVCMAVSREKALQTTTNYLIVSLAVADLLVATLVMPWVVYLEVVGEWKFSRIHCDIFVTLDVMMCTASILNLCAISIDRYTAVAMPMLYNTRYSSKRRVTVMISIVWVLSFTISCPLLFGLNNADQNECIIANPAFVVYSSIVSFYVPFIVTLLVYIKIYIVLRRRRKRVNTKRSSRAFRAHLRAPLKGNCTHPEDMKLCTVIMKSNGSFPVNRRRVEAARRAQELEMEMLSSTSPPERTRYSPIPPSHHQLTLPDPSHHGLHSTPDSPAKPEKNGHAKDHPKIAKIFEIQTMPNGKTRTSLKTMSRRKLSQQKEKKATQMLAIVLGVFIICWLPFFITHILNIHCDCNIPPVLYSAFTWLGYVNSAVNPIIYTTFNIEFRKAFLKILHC
The target in another series is T4, h5-HT2C receptor (Homo sapiens, UniProt P28335).
T4 construct: expressed in transfected cells; host or cells: HEK293 cell preparations
T4 sequence (P28335 33-458): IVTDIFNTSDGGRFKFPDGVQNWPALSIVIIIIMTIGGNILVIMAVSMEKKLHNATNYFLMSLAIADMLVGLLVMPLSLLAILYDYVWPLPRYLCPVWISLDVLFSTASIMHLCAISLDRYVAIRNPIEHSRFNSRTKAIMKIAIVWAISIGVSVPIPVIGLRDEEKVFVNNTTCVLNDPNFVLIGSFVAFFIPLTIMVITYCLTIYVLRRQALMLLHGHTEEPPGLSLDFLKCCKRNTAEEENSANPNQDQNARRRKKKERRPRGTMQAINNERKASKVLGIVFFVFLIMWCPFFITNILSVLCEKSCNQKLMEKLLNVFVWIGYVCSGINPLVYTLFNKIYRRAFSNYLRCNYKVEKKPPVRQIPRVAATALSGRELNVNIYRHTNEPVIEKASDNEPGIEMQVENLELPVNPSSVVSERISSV
Conditions: read-out: h5-HT2C Receptor Binding Ki ± SD; [3H]-Mesulgerine; ref Simmler et al. (2013); cited from earlier work.

The Ki is a measure of affinity in units of concentration, obtained from inhibition or displacement. By EC50 is commonly meant the concentration that produces a half-maximal response. Turning to `CC(N)Cc1ccccc1` (stereo not drawn) [Amphetamine, amphetamine, reference compound], the Ki at adrenergic α1A receptor is over 6000 nM; at h5-HT2A receptor, over 13000 nM; on Mouse TAAR1 it was 90 ± 60 nM; on adrenergic α2A receptor it was 2800 ± 800 nM; on Rat TAAR1, 230 ± 180 nM; at dopaminergic D2 receptor it was over 30000 nM. For the same compound, the inhibitory constant (Ki) at h5-HT2C receptor is over 13000 nM. The results for the half-maximal effective concentration (EC50) on h5-HT2B receptor and with Human TAAR1 were 9400 ± 1600 nM and 2800 ± 800 nM, respectively.
